Test results reported in PubChem BioAssay (NCI).
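Cultured in 96-well plates, cells were exposed to test compound for 48 hours across five concentrations. GI50 = concentration required for 50% inhibition of growth. At the TGI there is no net growth.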

tested on: SR leukemia; test: NCI-60 cell line screen, 48 h

| SMILES | GI50 | TGI |
| --- | --- | --- |
| CCCCCCCC/C=C/CCCCCCCC(=O)OC[C@H]1O[C@@H](n2ccc(N)nc2=O)C(F)(F)[C@@H]1O | < 13.4 nM | 11.1 µM |
| NS(=O)(=O)c1ccc(N=Nc2c(O)[nH]c3ccc(-c4cnco4)cc23)cc1 | 4990 nM | > 25 µM |
| COc1cc2c3c(n(CCCNC(=O)OCC4c5ccccc5-c5ccccc54)c(=O)c2cc1OC)-c1cc2c(cc1/C3=C\CCNC(=O)OCC1c3ccccc3-c3ccccc31)OCO2 | 3290 nM | 21 µM |
| N#C/C(=C1C=C(Br)/C(=N\O)C=C\1Cl)c1cccc2ccccc12 |  | 13.8 µM |
| COc1cc2nc3cc([N+](=O)[O-])ccc3c(NCCCNCCO)c2cc1OC | 238 nM | 1.71 µM |
| COC(=O)[C@@H](C)CNS(=O)(=O)N(c1cc(C(F)(F)F)cc(C(F)(F)F)c1)C1CCN(Cc2ccc(F)cc2)CC1 | 3810 nM | 9.22 µM |
| C=C1C(=O)O[C@@H]2/C=C(\C)CC/C=C(/COC(C)=O)C[C@@H](OC(C)=O)[C@@H]12 |  | 7.39 µM |
| COC(=O)[C@H](C)NC(=O)NC(=O)NC(=O)CI | 2430 nM | 5.94 µM |
| COc1cc2c(c(OC)c1OC)-c1ccc(OC)c(=O)cc1[C@@H](NC(=O)c1ccccc1)CC2 |  | > 100 µM |
| CN1C/C=C\CCOc2cccc(c2)-c2ccnc(n2)Nc2cccc(c2)C1 | 19.6 nM | 0.116 µM |
| C[C@@]12CC=C3c4nc(Nc5cccc(O)c5)sc4CC[C@]3(C)[C@H]1CC[C@]1(C)C(=O)CC[C@@H]21 | 1870 nM | > 100 µM |
| CN1C(=O)c2cccc3cc([N+](=O)[O-])cc(c23)C1=O |  | > 10 µM |
| Oc1ccccc1C(Sc1nc2ccccc2s1)Sc1nc2ccccc2s1 |  | > 100 µM |
| COC1=C(C)C(=O)c2c(c(COC(N)=O)c3n2CC2C3N2C)C1=O (configuration not stated) |  | < 0.0354 µM |

tested on: T-47D breast; test: NCI-60 cell line screen, 48 h

| SMILES | GI50 | TGI |
| --- | --- | --- |
| O=C(N/N=C/c1ccc(Cl)cc1)c1ccc(C(F)(F)F)nc1Nc1cccc(C(F)(F)F)c1 | 2.06 µM | 10.7 µM |
| COc1cc2ncnc(Nc3ccc(C)c(O)c3)c2cc1OC | 7.79 µM | > 25 µM |
| COC(=O)C1=CNC=C(C(=O)OC)C1C1=CC(=O)C(C)=CC1=O | 17.9 µM | 44.6 µM |
| C=C1C(=O)O[C@H]2[C@H]1CC/C(COC(=O)C(=O)c1cn(Cc3ccccc3)c3ccccc13)=C\CC[C@@]1(C)O[C@@H]21 | 2.04 µM | 4.85 µM |
| Cc1cc(S(=O)(=O)Nc2nnc(-c3ccccc3)c(-c3ccccc3)n2)c(SCC(N)=O)cc1Cl | 34.5 µM | > 100 µM |
| COC(C(O)CO)C(O)C(O)C(=O)NNc1ccccc1 (configuration not stated) |  | > 100 µM |
| NS(=O)(=O)c1ccc(NC2(C(=O)O)CCCC2)cc1 |  | > 100 µM |
| O=C(O)C1OC(n2cc(F)c(=O)[nH]c2=O)CC1O (configuration not stated) |  | > 100 µM |
| N=C1C(c2nc3ccccc3s2)=C(O)CN1c1cc(C(F)(F)F)ccc1Cl | 48.1 µM | > 100 µM |
| CC(=O)CSCc1ccccn1 |  | > 100 µM |
| COc1ccccc1CNCCCN1C(=O)c2ccc3c4c(ccc(c24)C1=O)C(=O)N(CCCOCCCCOCCCN)C3=O | 0.926 µM | 3.34 µM |
| CCOC(=O)[C@@H](N)CCC(=O)N[C@@H](CSCc1ccccc1)C(=O)N[C@@H](C(=O)OCC)c1ccccc1 | 14.8 µM | 33.8 µM |
| COc1ccc(Nc2c3ccccc3nc3occc23)cc1 |  | > 38.2 µM |
| COc1cc(/C=C/c2cc(/C=C/c3ccc(O)c(OC)c3)n(C(=O)Nc3ccc(F)c(Cl)c3)n2)ccc1O | 0.634 µM | 2.32 µM |
| CCCCCCCC/C=C/CCCCCCCC(=O)OC[C@H]1O[C@@H](n2ccc(N)nc2=O)C(F)(F)[C@@H]1O | 0.152 µM | > 100 µM |
| NS(=O)(=O)c1ccc(N=Nc2c(O)[nH]c3ccc(-c4cnco4)cc23)cc1 | > 25 µM | > 25 µM |
| COc1cc2c3c(n(CCCNC(=O)OCC4c5ccccc5-c5ccccc54)c(=O)c2cc1OC)-c1cc2c(cc1/C3=C\CCNC(=O)OCC1c3ccccc3-c3ccccc31)OCO2 | > 50 µM | > 50 µM |
| N#C/C(=C1C=C(Br)/C(=N\O)C=C\1Cl)c1cccc2ccccc12 |  | 12.9 µM |
| COc1cc2nc3cc([N+](=O)[O-])ccc3c(NCCCNCCO)c2cc1OC | 0.205 µM | 0.531 µM |
| COC(=O)[C@@H](C)CNS(=O)(=O)N(c1cc(C(F)(F)F)cc(C(F)(F)F)c1)C1CCN(Cc2ccc(F)cc2)CC1 | 5.34 µM | 19.6 µM |
| C=C1C(=O)O[C@@H]2/C=C(\C)CC/C=C(/COC(C)=O)C[C@@H](OC(C)=O)[C@@H]12 |  | 26.6 µM |
